# Assay results from ChEMBL document CHEMBL3886652, “Arlethynyl derivatives” (2016).
# Target: Metabotropic glutamate receptor 5 (Homo sapiens, UniProt P41594)
# Assay: Intracellular Ca2+ Mobilization Assay: A monoclonal HEK-293 cell line stably transfected with a cDNA encoding for the human mGlu5a receptor was generated; for the work with mGlu5 Positive Allosteric Modulators (PAMs), a cell line with low receptor expression levels and low constitutive receptor activity was selected to allow the differentiation of agonistic versus PAM activity. Cells were cultured according to standard protocols (Freshney, 2000) in Dulbecco's Modified Eagle Medium with high glucose supplemented with 1 mM glutamine, 10% (vol/vol) heat-inactivated bovine calf serum, Penicillin/Streptomycin, 50 μg/ml hygromycin and 15 μg/ml blasticidin (all cell culture reagents and antibiotics from Invitrogen, Basel, Switzerland). bout 24 hrs before an experiment, 5×10^4 cells/well were seeded in poly-D-lysine coated, black/clear-bottomed 96-well plates. The cells were loaded with 2.5 μM Fluo-4AM in loading buffer (1×HBSS, 20 mM HEPES) for 1 hr at 37 °C. and washed five times with loading buffer. The cells were transferred into a Functional Drug Screening System 7000 (Hamamatsu, Paris, France), and 11 half logarithmic serial dilutions of test compound at 37 °C. were added and the cells were incubated for 10-30 min. with on-line recording of fluorescence. […]
# Format: cell-based, HEK293
# Sequence of Metabotropic glutamate receptor 5 (P41594 whole entry): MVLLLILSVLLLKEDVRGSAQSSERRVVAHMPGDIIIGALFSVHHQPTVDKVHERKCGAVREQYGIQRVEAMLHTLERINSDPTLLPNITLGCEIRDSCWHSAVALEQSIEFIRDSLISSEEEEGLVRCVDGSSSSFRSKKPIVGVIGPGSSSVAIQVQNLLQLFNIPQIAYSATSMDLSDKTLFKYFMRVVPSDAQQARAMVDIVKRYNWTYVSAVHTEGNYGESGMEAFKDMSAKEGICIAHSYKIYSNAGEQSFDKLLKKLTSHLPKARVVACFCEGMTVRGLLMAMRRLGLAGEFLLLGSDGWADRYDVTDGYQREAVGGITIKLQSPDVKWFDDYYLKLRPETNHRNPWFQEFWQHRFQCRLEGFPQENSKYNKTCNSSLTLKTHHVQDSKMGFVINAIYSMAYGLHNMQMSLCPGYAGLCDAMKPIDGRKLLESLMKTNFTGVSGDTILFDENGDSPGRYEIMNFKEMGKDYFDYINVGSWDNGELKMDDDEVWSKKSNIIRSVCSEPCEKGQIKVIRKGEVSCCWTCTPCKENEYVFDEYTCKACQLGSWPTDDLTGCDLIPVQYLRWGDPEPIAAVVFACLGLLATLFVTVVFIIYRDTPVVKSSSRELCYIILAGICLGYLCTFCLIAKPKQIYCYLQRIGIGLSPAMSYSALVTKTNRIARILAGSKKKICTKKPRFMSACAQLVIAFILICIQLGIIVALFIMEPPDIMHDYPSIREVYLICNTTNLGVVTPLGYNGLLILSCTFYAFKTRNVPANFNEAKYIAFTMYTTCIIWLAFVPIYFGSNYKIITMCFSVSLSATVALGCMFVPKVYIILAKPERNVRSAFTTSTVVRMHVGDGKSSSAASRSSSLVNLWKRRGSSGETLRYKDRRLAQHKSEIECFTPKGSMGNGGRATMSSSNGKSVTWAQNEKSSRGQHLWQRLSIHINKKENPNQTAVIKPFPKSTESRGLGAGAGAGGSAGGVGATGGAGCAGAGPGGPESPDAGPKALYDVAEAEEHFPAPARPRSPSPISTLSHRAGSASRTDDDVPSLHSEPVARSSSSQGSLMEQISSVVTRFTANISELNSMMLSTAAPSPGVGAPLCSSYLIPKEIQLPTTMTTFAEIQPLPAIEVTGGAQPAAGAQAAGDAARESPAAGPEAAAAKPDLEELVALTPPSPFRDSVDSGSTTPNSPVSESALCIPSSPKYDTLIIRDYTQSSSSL
row,SMILES,EC50
1,CN1CC(C)(C)CN(c2ccc(C#Cc3ccccc3)cn2)C1=O,33 nM
2,CCN1C(=O)N(c2ccc(C#Cc3cccnc3)cn2)C2CCCCC21 (configuration not stated),69 nM
